Results as given in patent US7375058B2, “Herbicidal mixtures based on 3-phenyluracils” (priority 2002, dated 2008).
Where a name gives a salt, the structure may show the parent alone.

Columns and labels:
[1] = system: BRAPL; assay: Greenhouse post-emergence herbicidal action against BRAPL; type: in vivo, Brachiaria plantaginea
Source text: (§1) For the post-emergence treatment, the test plants were first grown to a height of 3 to 20 cm, depending on the plant habit, and only then treated. Here, the herbicidal compositions were suspended or emulsified in water as distribution medium and sprayed using finely distributing nozzles
(§2) The respective components A and B and/or C were formulated as 10% by weight strength emulsion concentrate and introduced to the spray liquor with the amount of solvent system used for applying the active compound. In the examples, the solvent used was water.
(§3) The test period extended over 21 days. During this time, the plants were tended, and their response to the treatments with active compound was evaluated.
(§4) The evaluation for the damage caused by the chemical compositions was carried out using a scale from 0 to 100%, compared to the untreated control plants. Here, 0 means no damage and 100 means complete destruction of the plants.
(§5) In the examples below, the value E which is to be expected if the activity of the individual compounds is just additive was calculated using the method of S. R. Colby (1967) “Calculating synergistic and antagonistic responses of herbicide combinations”, Weeds 15, p. 22 ff. E=X+Y−([…]) where • X=effect in percent using active compound A at an application rate a; • Y=effect in percent using active compound B at an application rate b; • E=expected effect (in %) of A+B at application rates a+b.
(§6) If the observed effect is higher than the value E calculated according to Colby, a synergistic effect is present.

[2] = system: GALAP; assay: Greenhouse post-emergence herbicidal action against GALAP; type: in vivo, Galium aparine
Source text: as §1, §2, §3, §4, §5, §6

[3] = system: SETFA; assay: Greenhouse post-emergence herbicidal action against SETFA; type: in vivo, Setaria faberii
Source text: as §1, §2, §3, §4, §5, §6

[4] = system: ECHCG; assay: Greenhouse post-emergence herbicidal action against ECHCG; type: in vivo, Echinochloa crus-galli
Source text: as §1, §2, §3, §4, §5, §6

[5] = system: BIDPI; assay: Greenhouse post-emergence herbicidal action against BIDPI; type: in vivo, Bidens pilosa
Source text: as §1, §2, §3, §4, §5, §6

[6] = system: ABUTH; assay: Greenhouse post-emergence herbicidal action against ABUTH; type: in vivo, Abutilon theophrasti
Source text: as §1, §2, §3, §4, §5, §6

[7] = system: ALOMY; assay: Greenhouse post-emergence herbicidal action against ALOMY; type: in vivo, Alopecurus myosuroides; conditions: 21 days
Source text: as §1, §2, §3, §4, §5, §6

[8] = system: COMBE; assay: Greenhouse post-emergence herbicidal action against COMBE; type: in vivo, Commelina benghalensis
Source text: as §1, §2, §3, §4, §5, §6

[9] = system: POLPE; assay: Greenhouse post-emergence herbicidal action against POLPE; type: in vivo, Polygonum persicaria; conditions: 21 days
Source text: as §1, §2, §3, §4, §5, §6

[10] = system: AMARE; assay: Greenhouse post-emergence herbicidal action against AMARE; type: in vivo, Amaranthus retroflexus
Source text: as §1, §2, §3, §4, §5, §6

[11] = I.14 0.49 g/ha and/or b13.3 62.5 g/ha
[12] = I.14 0.98 g/ha and/or b13.3 125 g/ha
[13] = I.14 0.49 g/ha and/or b10.3 62.5 g/ha
[14] = I.14 0.49 g/ha and/or b10.3 + c.2 62.5 + 3.13 g/ha
[15] = I.14 0.49 g/ha and/or b11.1 62.5 g/ha
[16] = I.14 0.98 g/ha and/or b10.3 125 g/ha
[17] = I.14 0.98 g/ha and/or b10.3 + c.2 125 + 6.25 g/ha
[18] = I.14 0.98 g/ha and/or b11.1 125 g/ha
[19] = I.1 0.49 g/ha and/or b14.1 7.81 g/ha
[20] = I.1 0.98 g/ha and/or b14.1 15.63 g/ha

## CC(C)CN(C)S(=O)(=O)NC(=O)c1cc(-n2c(=O)cc(C(F)(F)F)n(N)c2=O)c(F)cc1Cl [I.14]
[1]; 21 days, application rate g/ha: I.14 0.49, b2.3 0.98
  Herbicidal action against BRAPL found: 0%
[1]; 21 days, application rate g/ha: I.14 0.98, b2.3 1.95
  Herbicidal action against BRAPL found: 0%
[1]; [11]
  Herbicidal action against BRAPL found: 10%
[1]; [12]
  Herbicidal action against BRAPL found: 15%
[2]; [13]
  Herbicidal action against GALAP found: 0%
[2]; [14]
  Herbicidal action against GALAP found: 0%
[2]; [15]
  Herbicidal action against GALAP found: 0%
[2]; [16]
  Herbicidal action against GALAP found: 25%
[2]; [17]
  Herbicidal action against GALAP found: 25%
[2]; [18]
  Herbicidal action against GALAP found: 25%
[3]; [13]
  Herbicidal action against SETFA found: 20%
[3]; [14]
  Herbicidal action against SETFA found: 20%
[3]; [15]
  Herbicidal action against SETFA found: 20%
[3]; [16]
  Herbicidal action against SETFA found: 25%
[3]; [17]
  Herbicidal action against SETFA found: 25%
[3]; [18]
  Herbicidal action against SETFA found: 25%
[4]; I.14 1.95 g/ha and/or b13.2 125 g/ha
  Herbicidal action against ECHCG found: 40%
[4]; I.14 3.91 g/ha and/or b13.2 250 g/ha
  Herbicidal action against ECHCG found: 70%
[5]; 21 days, application rate g/ha: I.14 1.95, b10.2 250
  Herbicidal action against BIDPI found: 40%
[5]; 21 days, application rate g/ha: I.14 3.91, b10.2 500
  Herbicidal action against BIDPI found: 85%
[6]; [11]
  Herbicidal action against ABUTH found: 0%
[6]; [12]
  Herbicidal action against ABUTH found: 20%
[7]; application rate g/ha: I.14 0.49, b2.3 0.98
  Herbicidal action against ALOMY found: 0%
[7]; application rate g/ha: I.14 0.98, b2.3 1.95
  Herbicidal action against ALOMY found: 0%
[8]; I.14 1.95 g/ha and/or b.15.1 125 g/ha
  Herbicidal action against COMBE found: 0%
[8]; I.14 3.91 g/ha and/or b.15.1 250 g/ha
  Herbicidal action against COMBE found: 40%

## CNC.C[C@@H](Oc1ccc(Cl)cc1Cl)C(=O)O [b13.1, dichlorprop-P dimethylammonium salt, reference compound]
[9]; application rate g/ha: I.7 1.95, b13.1 500
  Herbicidal action against POLPE found: 30%
[9]; application rate g/ha: I.7 3.91, b13.1 1000
  Herbicidal action against POLPE found: 30%
[8]; 21 days, application rate g/ha: I.7 1.95, b13.1 500
  Herbicidal action against COMBE found: 40%
[8]; 21 days, application rate g/ha: I.7 3.91, b13.1 1000
  Herbicidal action against COMBE found: 75%

## C/C(=N\NC(=O)Nc1cc(F)cc(F)c1)c1ncccc1C(=O)O [b14.1, diflufenzopyr sodium salt, reference compound]
[10]; [19]
  Herbicidal action against AMARE found: 0%
[10]; [20]
  Herbicidal action against AMARE found: 0%
[5]; [19]
  Herbicidal action against BIDPI found: 20%
[5]; [20]
  Herbicidal action against BIDPI found: 30%
